Results: PubChem BioAssay (NCI)
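The compound was tested at five concentrations on cells cultured in 96-well plates, with a 48-hour exposure period. TGI: total growth inhibition.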

Assays:
Experiment in all cases: NCI tumour cell line growth inhibition, 48 h
UO-31 renal = test system: UO-31 renal
IGROV1 ovarian = test system: IGROV1 ovarian
OVCAR-3 ovarian = test system: OVCAR-3 ovarian
UACC-62 melanoma = test system: UACC-62 melanoma
NCI-H23 lung = test system: NCI-H23 lung
HOP-62 NSCLC = test system: HOP-62 NSCLC
XF 498 CNS = test system: XF 498 CNS
M19-MEL melanoma = test system: M19-MEL melanoma
KM12 colon = test system: KM12 colon
LOX IMVI melanoma = test system: LOX IMVI melanoma
OVCAR-4 ovarian = test system: OVCAR-4 ovarian
HCC-2998 colon = test system: HCC-2998 colon
DLD-1 colon = test system: DLD-1 colon
CCRF-CEM leukemia = test system: CCRF-CEM leukemia
SR leukemia = test system: SR leukemia
SF-295 CNS = test system: SF-295 CNS
COLO 205 colon = test system: COLO 205 colon
SW-620 colon = test system: SW-620 colon
NCI-H460 lung = test system: NCI-H460 lung
SNB-75 CNS = test system: SNB-75 CNS
HOP-18 NSCLC = test system: HOP-18 NSCLC
SF-268 CNS = test system: SF-268 CNS
DMS 114 small cell lung = test system: DMS 114 small cell lung
A498 renal = test system: A498 renal
U251 CNS = test system: U251 CNS
OVCAR-8 ovarian = test system: OVCAR-8 ovarian
RXF 393 renal = test system: RXF 393 renal
SK-MEL-28 melanoma = test system: SK-MEL-28 melanoma
SF-539 CNS = test system: SF-539 CNS
RXF-631 renal = test system: RXF-631 renal
SN12C renal = test system: SN12C renal
SK-MEL-2 melanoma = test system: SK-MEL-2 melanoma
TK-10 renal = test system: TK-10 renal
HCT-116 colon = test system: HCT-116 colon
MOLT-4 leukemia = test system: MOLT-4 leukemia
SNB-78 CNS = test system: SNB-78 CNS
EKVX NSCLC = test system: EKVX NSCLC
M14 melanoma = test system: M14 melanoma
SK-OV-3 ovarian = test system: SK-OV-3 ovarian
OVCAR-5 ovarian = test system: OVCAR-5 ovarian
HL-60(TB) leukemia = test system: HL-60(TB) leukemia
LXFL 529 NSCLC = test system: LXFL 529 NSCLC
RPMI-8226 leukemia = test system: RPMI-8226 leukemia
UACC-257 melanoma = test system: UACC-257 melanoma
HCT-15 colon = test system: HCT-15 colon
K-562 leukemia = test system: K-562 leukemia
HOP-92 NSCLC = test system: HOP-92 NSCLC
A549 NSCLC = test system: A549 NSCLC
HT29 colon = test system: HT29 colon
NCI-H226 lung = test system: NCI-H226 lung
KM20L2 colon = test system: KM20L2 colon
MALME-3M melanoma = test system: MALME-3M melanoma
DMS 273 small cell lung = test system: DMS 273 small cell lung
SK-MEL-5 melanoma = test system: SK-MEL-5 melanoma
786-0 renal = test system: 786-0 renal
CAKI-1 renal = test system: CAKI-1 renal
ACHN renal = test system: ACHN renal
NCI-H522 lung = test system: NCI-H522 lung
SNB-19 CNS = test system: SNB-19 CNS

SMILES: COc1ccc(C2c3cc4c(cc3OC(O)(CO)C2C(=O)O)OCO4)cc1 (configuration not stated) (tested in a mixture with another compound)
- TGI (UO-31 renal): > 100 µM
- TGI (IGROV1 ovarian): 43.5 µM
- TGI (OVCAR-3 ovarian): 54.4 µM
- TGI (UACC-62 melanoma): 36.4 µM
- TGI (NCI-H23 lung): 50.8 µM
- TGI (HOP-62 NSCLC): > 100 µM
- TGI (XF 498 CNS): 16.6 µM
- TGI (M19-MEL melanoma): 21.3 µM
- TGI (KM12 colon): 67.2 µM
- TGI (LOX IMVI melanoma): 30.1 µM
- TGI (OVCAR-4 ovarian): > 100 µM
- TGI (HCC-2998 colon): 38.2 µM
- TGI (DLD-1 colon): 54.9 µM
- TGI (CCRF-CEM leukemia): 55.5 µM
- TGI (SR leukemia): 56.2 µM
- TGI (SF-295 CNS): 57.3 µM
- TGI (COLO 205 colon): > 100 µM
- TGI (SW-620 colon): 37.6 µM
- TGI (NCI-H460 lung): 36.3 µM
- TGI (SNB-75 CNS): 78.3 µM
- TGI (HOP-18 NSCLC): > 100 µM
- TGI (SF-268 CNS): 94.3 µM
- TGI (DMS 114 small cell lung): 61.3 µM
- TGI (A498 renal): > 100 µM
- TGI (U251 CNS): 36.5 µM
- TGI (OVCAR-8 ovarian): 48.5 µM
- TGI (RXF 393 renal): 34.7 µM
- TGI (SK-MEL-28 melanoma): 43.8 µM
- TGI (SF-539 CNS): 43.6 µM
- TGI (RXF-631 renal): 42.9 µM
- TGI (SN12C renal): 54.1 µM
- TGI (SK-MEL-2 melanoma): 71.8 µM
- TGI (TK-10 renal): > 100 µM
- TGI (HCT-116 colon): 33.1 µM
- TGI (MOLT-4 leukemia): 57.8 µM
- TGI (SNB-78 CNS): 59 µM
- TGI (EKVX NSCLC): 88 µM
- TGI (M14 melanoma): 29.1 µM
- TGI (SK-OV-3 ovarian): 98.5 µM
- TGI (OVCAR-5 ovarian): > 100 µM
- TGI (HL-60(TB) leukemia): 41.7 µM
- TGI (LXFL 529 NSCLC): 31.1 µM
- TGI (RPMI-8226 leukemia): 49.5 µM
- TGI (UACC-257 melanoma): 50.8 µM
- TGI (HCT-15 colon): 35.6 µM
- TGI (K-562 leukemia): 40.2 µM
- TGI (HOP-92 NSCLC): 41.7 µM
- TGI (A549 NSCLC): > 100 µM
- TGI (HT29 colon): 52.4 µM
- TGI (NCI-H226 lung): 47.7 µM
- TGI (KM20L2 colon): > 100 µM
- TGI (MALME-3M melanoma): 75.9 µM
- TGI (DMS 273 small cell lung): 17.7 µM
- TGI (SK-MEL-5 melanoma): 39.5 µM

SMILES: C/C(CC(=O)NC1=CC=C(NC(=O)C/C(C)=N\Nc2ccccc2)CC1)=N/Nc1ccccc1
- TGI (UO-31 renal): > 100 µM
- TGI (IGROV1 ovarian): > 100 µM
- TGI (OVCAR-3 ovarian): > 100 µM
- TGI (UACC-62 melanoma): > 100 µM
- TGI (786-0 renal): > 100 µM
- TGI (NCI-H23 lung): > 100 µM
- TGI (HOP-62 NSCLC): > 100 µM
- TGI (XF 498 CNS): > 100 µM
- TGI (M19-MEL melanoma): > 100 µM
- TGI (KM12 colon): > 100 µM
- TGI (LOX IMVI melanoma): > 100 µM
- TGI (OVCAR-4 ovarian): > 100 µM
- TGI (HCC-2998 colon): > 100 µM
- TGI (DLD-1 colon): > 100 µM
- TGI (CAKI-1 renal): > 100 µM
- TGI (CCRF-CEM leukemia): > 100 µM
- TGI (SR leukemia): > 100 µM
- TGI (SF-295 CNS): > 100 µM
- TGI (COLO 205 colon): > 100 µM
- TGI (NCI-H460 lung): > 100 µM
- TGI (SNB-75 CNS): > 100 µM
- TGI (HOP-18 NSCLC): > 100 µM
- TGI (SF-268 CNS): > 100 µM
- TGI (DMS 114 small cell lung): > 100 µM
- TGI (ACHN renal): > 100 µM
- TGI (A498 renal): > 100 µM
- TGI (U251 CNS): > 100 µM
- TGI (OVCAR-8 ovarian): > 100 µM
- TGI (RXF 393 renal): > 100 µM
- TGI (SK-MEL-28 melanoma): > 100 µM
- TGI (SF-539 CNS): > 100 µM
- TGI (RXF-631 renal): > 100 µM
- TGI (SN12C renal): > 100 µM
- TGI (SK-MEL-2 melanoma): > 100 µM
- TGI (TK-10 renal): > 100 µM
- TGI (HCT-116 colon): > 100 µM
- TGI (MOLT-4 leukemia): > 100 µM
- TGI (SNB-78 CNS): > 100 µM
- TGI (EKVX NSCLC): > 100 µM
- TGI (M14 melanoma): > 100 µM
- TGI (SK-OV-3 ovarian): > 100 µM
- TGI (NCI-H522 lung): > 100 µM
- TGI (OVCAR-5 ovarian): > 100 µM
- TGI (HL-60(TB) leukemia): > 100 µM
- TGI (LXFL 529 NSCLC): > 100 µM
- TGI (RPMI-8226 leukemia): > 100 µM
- TGI (UACC-257 melanoma): > 100 µM
- TGI (HCT-15 colon): > 100 µM
- TGI (SNB-19 CNS): > 100 µM
- TGI (K-562 leukemia): > 100 µM
- TGI (HOP-92 NSCLC): > 100 µM
- TGI (A549 NSCLC): > 100 µM
- TGI (HT29 colon): > 100 µM
- TGI (NCI-H226 lung): > 100 µM
- TGI (KM20L2 colon): > 100 µM
- TGI (MALME-3M melanoma): > 100 µM
- TGI (DMS 273 small cell lung): > 100 µM
- TGI (SK-MEL-5 melanoma): > 100 µM
